Type in all cases: biochemical
Experiment [1] deals with T1, Human Mer (Homo sapiens, UniProt Q12866).
T1 construct: Human Mer (residues R557-E882 with H628Q and R794A, 0.7 nM); purchased Eurofins Pharma Discovery Services UK Limited (KinaseProfiler service)
T1 sequence (Q12866 557-882 limits assumed): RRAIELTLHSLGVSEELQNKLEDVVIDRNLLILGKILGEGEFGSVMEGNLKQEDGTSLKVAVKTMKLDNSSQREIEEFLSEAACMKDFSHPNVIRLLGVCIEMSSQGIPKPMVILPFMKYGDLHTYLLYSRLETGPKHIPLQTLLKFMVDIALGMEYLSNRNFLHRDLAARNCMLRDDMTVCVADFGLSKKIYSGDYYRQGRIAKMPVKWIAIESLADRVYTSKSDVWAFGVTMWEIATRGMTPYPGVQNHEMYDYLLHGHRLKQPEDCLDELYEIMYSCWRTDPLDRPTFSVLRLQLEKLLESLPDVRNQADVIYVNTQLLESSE
Kind of experiment: Human Mer kinase assay (33P radiometric / HTRF KinEase). As to conditions: protocols of Examples C-1 and/or C-2. The protocol:
(§1) Kinase activity and compound inhibition were investigated using the ^33P-Phosphoryl transfer radiometric kinase assay, performed using the KinaseProfiler™ service of Eurofins Pharma Discovery Services UK Limited. Dose-response experiments were performed using nine compound concentrations in a 96-well microtiter plate. For each assay, all compounds were prepared to a 50× final assay concentration (50 μM) in 100% DMSO, then diluted in a half-log series, with the final top concentration at 1 μM. This working stock of the compound was added to the assay well as the first component in the reaction, followed by the remaining components as detailed in the following assay protocols below. The positive control wells (100% kinase activity) contain all components of the reaction including 2% DMSO (control for solvent effects), except the compound of interest. Blank wells contain all components of the reaction, with the reference inhibitor, staurosporine. This reference compound was used to abolish kinase activity and generated the 0% kinase activity base-line. IC50 values were calculated by nonlinear regression analysis using the sigmoidal dose-response (variable slope) curve fit on XLFit version 5.3 (ID Business Solutions).
(§2) Kinase activity and compound inhibition were also investigated using the HTRF® KinEase assay (Cisbio Cat #62TKOPEB) per manufacturer's instructions. In short, compounds were delivered in 300 nL volumes at 10 different concentrations in DMSO (3% final) to empty 384-well assay plates (Corning cat #3824). A mixture of enzyme, 1 μM biotinylated peptide substrate, and buffer in 10 μL volume was added. The assay was started upon the addition of ATP (at Km). The 10 μL reaction was incubated at room temperature. The reaction was stopped upon the addition of detection buffer containing streptavidin-XL665 (5 μL) and TK antibody-Eu3+(5 μL). After a 60 min incubation at room temperature, the fluorescence at 665 nm and 620 nm was read on an Envision microplate reader (Perkin Elmer).
(§3) Kinase activity normalized to DMSO (100% activity) and reference compound at 1 μM and (0% activity) was calculated using the fluorescence ratio […]. IC50 values were calculated by nonlinear regression analysis using a 4-parameter logistic curve fit in ActivityBase XE (IDBS).
(§4) Example C-1: Human Mer (residues R557-E882 with H628Q and R794A, 0.7 nM) was incubated with 8 mM MOPS pH 7.0, 0.2 mM EDTA, 30 mM NaCl, 250 μM GGMEDIYFEFMGGKKK (SEQ ID NO: 2), 10 mM magnesium acetate, and 10 μM [γ-^33P-ATP]. The reaction was initiated by the addition of the Mg/ATP mix. After incubation for 40 minutes at room temperature, the reaction was stopped by the addition of phosphoric acid to a concentration of 0.5%. A reaction aliquot of 10 μL was then spotted onto a P30 filtermat and washed four times for 4 minutes in 0.425% phosphoric acid and once in methanol prior to drying and scintillation counting. Incorporated ^33P was measured using the Wallac Microbeta scintillation counter (Perkin Elmer).
Example C-2: Human MER (residues 528-999; CarnaBio, 1 ng/well) was also incubated with enzymatic buffer (Cisbio) supplemented with 5 mM MgCl2 and 1 mM DTT. The mixture was added to the pre-plated compounds. The reaction was initiated upon addition of ATP at Km (40 μM). The reaction was incubated at room temperature for 60 min and stopped upon the addition of SA-XL665 and TK-antibody both diluted in EDTA-containing kinase detection buffer (Cisbio). The kinase activity was calculated as stated above and the IC50 values were reported.

The target in experiment [2] is T2, Human Met (Homo sapiens, UniProt P08581).
T2 construct: Human MET (residues 956-1390)
T2 sequence (P08581 974-1390 limits assumed): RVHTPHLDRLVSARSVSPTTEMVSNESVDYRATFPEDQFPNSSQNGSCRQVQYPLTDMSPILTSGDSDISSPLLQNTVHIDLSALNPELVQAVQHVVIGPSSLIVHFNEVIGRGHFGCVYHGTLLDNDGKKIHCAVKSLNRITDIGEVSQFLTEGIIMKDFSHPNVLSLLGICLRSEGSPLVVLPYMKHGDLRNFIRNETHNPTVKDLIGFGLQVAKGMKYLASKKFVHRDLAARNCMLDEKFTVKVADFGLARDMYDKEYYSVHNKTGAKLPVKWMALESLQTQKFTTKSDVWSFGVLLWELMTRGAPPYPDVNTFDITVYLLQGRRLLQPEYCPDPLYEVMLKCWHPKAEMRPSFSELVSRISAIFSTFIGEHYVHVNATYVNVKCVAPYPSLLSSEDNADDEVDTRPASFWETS
The experiment can be described thus: Human Met kinase assay (33P radiometric / HTRF KinEase). As to conditions: protocols of Examples D-1 and/or D-2; read-out: c-Met IC50. On the procedure:
as §1, §2, §3
Example D-1: Human Met (residues R974-S1390 with A1209G and V1290L, 3.4 nM) was incubated with 8 mM MOPS pH 7.0, 0.2 mM EDTA, 250 μM KKKGQEEEYVFIE (SEQ ID NO:3), 1 mM sodium orthovanadate, 5 mM […], 10 mM magnesium acetate, and 10 μM [γ-^33P-ATP]. The reaction was initiated by the addition of the Mg/ATP mix. After incubation for 40 minutes at room temperature, the reaction was stopped by the addition of phosphoric acid to a concentration of 0.5%. A reaction aliquot of 10 μL was then spotted onto a P30 filtermat and washed four times for 4 minutes in 0.425% phosphoric acid and once in methanol prior to drying and scintillation counting. Incorporated ^33P was measured using the Wallac Microbeta scintillation counter (Perkin Elmer).
Example D-2: Human MET (residues 956-1390; CarnaBio, 0.1 ng/well) was also incubated with enzymatic buffer (Cisbio) supplemented with 5 mM MgCl2, 1 mM DTT and 1 mM MnCl2. The mixture was added to the pre-plated compounds. The reaction was initiated upon addition of ATP at Km (3.0 μM). The reaction was incubated at room temperature for 40 min and stopped upon the addition of SA-XL665 and TK-antibody both diluted in EDTA-containing kinase detection buffer (Cisbio). The kinase activity was calculated as stated above and the IC50 values were reported.

Experiment [3] addresses T3, Human KDR (Homo sapiens, UniProt P35968).
T3 construct: Human KDR (residues K790-V1356, 55 nM); purchased Eurofins Pharma Discovery Services UK Limited (KinaseProfiler, B-1) and/or CarnaBio (B-2)
Kind of experiment: Human KDR kinase assay (33P radiometric / HTRF KinEase). As to conditions: protocols of Examples B-1 and/or B-2. The protocol: as §1, §2, §3
as §4, with “B-1:” for “C-1:”, “KDR” for “Mer”, “K790-V1356, 55” for “R557-E882 with H628Q and R794A, 0.7”, “0.33 mg/mL myelin basic protein,” for “30 mM NaCl, 250 μM GGMEDIYFEFMGGKKK (SEQ ID NO: 2),”
Example B-2: Human KDR (residues 790-1356; CarnaBio, 0.1 ng/well) was also incubated with enzymatic buffer (Cisbio) supplemented with 5 mM MgCl2, 1 mM MnCl2, and 1 mM DTT. The mixture was added to the pre-plated compounds. The reaction was initiated upon addition of ATP at Km (4.0 μM). The reaction was incubated at room temperature for 40 min and stopped upon the addition of SA-XL665 and TK-antibody both diluted in EDTA-containing kinase detection buffer (Cisbio). The kinase activity was calculated as stated above and the IC50 values were reported.
(Time-resolved FRET reads energy transfer from a long-lived donor to a nearby acceptor.)

T3 sequence (P35968 790-1356): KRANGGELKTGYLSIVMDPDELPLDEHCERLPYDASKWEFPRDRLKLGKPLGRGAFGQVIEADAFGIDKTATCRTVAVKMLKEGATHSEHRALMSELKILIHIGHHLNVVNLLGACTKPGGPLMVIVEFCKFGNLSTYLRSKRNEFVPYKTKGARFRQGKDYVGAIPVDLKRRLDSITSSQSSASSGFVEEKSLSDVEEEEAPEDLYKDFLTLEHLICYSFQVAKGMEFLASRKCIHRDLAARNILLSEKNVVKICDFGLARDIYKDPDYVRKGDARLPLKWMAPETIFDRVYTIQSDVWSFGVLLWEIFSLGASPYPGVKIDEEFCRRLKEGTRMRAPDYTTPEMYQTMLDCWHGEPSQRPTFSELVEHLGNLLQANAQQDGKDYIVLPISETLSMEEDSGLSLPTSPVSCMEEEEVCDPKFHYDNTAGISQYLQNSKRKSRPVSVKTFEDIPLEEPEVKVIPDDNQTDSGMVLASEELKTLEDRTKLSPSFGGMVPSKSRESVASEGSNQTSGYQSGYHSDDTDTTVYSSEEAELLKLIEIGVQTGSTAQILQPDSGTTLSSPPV

What is called IC50 is the concentration that gives 50% inhibition. Turning to `COc1cnc2c(Oc3ccc(NC(=O)c4cnc(C)c(C5=CCCCC5)c4O)cc3F)ccnc2c1` [Compound 1-8, 5-(Cyclohexen-1-yl)-N-[3-fluoro-4-[(7-methoxy-1,5-naphthyridin-4-yl)oxy]phenyl]-4-hydroxy-6-methylpyridine-3-carboxamide], the IC50 in experiment [1], in experiment [2] and in experiment [3] was at most 100 nM in each case.
For `C=C(C)c1c(C)nc(C)c(C(=O)Nc2ccc(Oc3ccnc4cc(OC)cnc34)c(F)c2)c1O` [Compound 3, N-[3-Fluoro-4-[(7-methoxy-1,5-naphthyridin-4-yl)oxy]phenyl]-4-hydroxy-2,6-dimethyl-5-prop-1-en-2-ylpyridine-3-carboxamide], the IC50 in experiment [1], in experiment [2] and in experiment [3] was at most 100 nM throughout.
Regarding `C=C(C)c1c(C)nc(C)c(C(=O)Nc2ccc(Oc3ccnc4cc(OC)c(OC)nc34)cc2)c1O` [Compound 4, N-[4-[(6,7-Dimethoxy-1,5-naphthyridin-4-yl)oxy]phenyl]-4-hydroxy-2,6-dimethyl-5-prop-1-en-2-ylpyridine-3-carboxamide], the IC50 in experiment [1], in experiment [2] and in experiment [3] was at most 100 nM each time.
In the case of `C=C(C)c1c(C)nc(C)c(C(=O)Nc2ccc(Oc3ccnc4cc(OC)c(OC)nc34)c(F)c2)c1O` [Compound 5, N-[4-[(6,7-Dimethoxy-1,5-naphthyridin-4-yl)oxy]-3-fluorophenyl]-4-hydroxy-2,6-dimethyl-5-prop-1-en-2-ylpyridine-3-carboxamide], the IC50 in experiment [1], in experiment [2] and in experiment [3] was at most 100 nM throughout.
For the compound `COc1cc2nccc(Oc3ccc(NC(=O)c4c(C)n(C)c(C)c(C(C)C)c4=O)cc3F)c2nc1OC` [Compound 56, N-[4-[(6,7-Dimethoxy-1,5-naphthyridin-4-yl)oxy]-3-fluorophenyl]-1,2,6-trimethyl-4-oxo-5-propan-2-ylpyridine-3-carboxamide], the IC50 is at most 100 nM in experiment [1], over 300 nM in experiment [2] and over 300 nM in experiment [3].
On to `COc1cc2nccc(Oc3ccc(NC(=O)c4c(C)n(C)c(C)c(C(C)C)c4=O)cc3)c2nc1OC` [Compound 57, N-[4-[(6,7-Dimethoxy-1,5-naphthyridin-4-yl)oxy]phenyl]-1,2,6-trimethyl-4-oxo-5-propan-2-ylpyridine-3-carboxamide], for which the figures for the IC50 in experiment [1], in experiment [2] and in experiment [3] were at most 100 nM, over 300 nM and at most 100 nM, respectively.
Consider `COc1cnc2c(Oc3ccc(NC(=O)c4c(C)nc(C)c(OC)c4O)cc3)ccnc2c1` [Compound 59, 4-Hydroxy-5-methoxy-N-[4-[(7-methoxy-1,5-naphthyridin-4-yl)oxy]phenyl]-2,6-dimethylpyridine-3-carboxamide], for which the IC50 in experiment [1] is at most 100 nM; in experiment [2] it was over 300 nM; in experiment [3], 100 to 300 nM.
With `COc1cnc2c(Oc3ccc(NC(=O)c4c(C)nc(C)c(OC)c4O)cc3F)ccnc2c1` [Compound 60, N-[3-Fluoro-4-[(7-methoxy-1,5-naphthyridin-4-yl)oxy]phenyl]-4-hydroxy-5-methoxy-2,6-dimethylpyridine-3-carboxamide], the values for the IC50 in experiment [1], in experiment [2] and in experiment [3] were over 300 nM, over 300 nM and at most 100 nM, respectively.
As for `COc1cc2nccc(Oc3ccc(NC(=O)c4c(C)nc(C)c(OC)c4O)cc3)c2nc1OC` [Compound 61, N-[4-[(6,7-Dimethoxy-1,5-naphthyridin-4-yl)oxy]phenyl]-4-hydroxy-5-methoxy-2,6-dimethylpyridine-3-carboxamide], the IC50 was over 300 nM in experiment [1], over 300 nM in experiment [2] and at most 100 nM in experiment [3].
Turning to `COc1cc2nccc(Oc3ccc(NC(=O)c4c(C)nc(C)c(OC)c4O)cc3F)c2nc1OC` [Compound 62, N-[4-[(6,7-Dimethoxy-1,5-naphthyridin-4-yl)oxy]-3-fluorophenyl]-4-hydroxy-5-methoxy-2,6-dimethylpyridine-3-carboxamide], the IC50 was at most 100 nM in experiment [1], over 300 nM in experiment [2] and at most 100 nM in experiment [3].
For the compound `CCc1c(Br)c(=O)c(C(=O)Nc2cc(F)c(Oc3ccnc4cc(OC)c(OC)nc34)cc2F)cn1C` [Compound 63, 5-Bromo-N-[4-[(6,7-dimethoxy-1,5-naphthyridin-4-yl)oxy]-2,5-difluorophenyl]-6-ethyl-1-methyl-4-oxopyridine-3-carboxamide], the figures for the IC50 in experiment [1], in experiment [2] and in experiment [3] were at most 100 nM, over 300 nM and over 300 nM, respectively.
For the compound `CCc1c(Br)c(=O)c(C(=O)Nc2ccc(Oc3ccnc4cc(OCCOC)c(OC)nc34)cc2)cn1C` [Compound 64, 5-Bromo-6-ethyl-N-[4-[[6-methoxy-7-(2-methoxyethoxy)-1,5-naphthyridin-4-yl]oxy]phenyl]-1-methyl-4-oxopyridine-3-carboxamide], the IC50 in experiment [1] is at most 100 nM; in experiment [2], over 300 nM; in experiment [3], over 300 nM.
